Assay results taken from paper PMC12277872, “Design, Synthesis, In Vitro, and In Silico Studies of 5‐(Diethylamino)‐2‐Formylphenyl Naphthalene‐2‐Sulfonate Based Thiosemicarbazones as Potent Anti‐Alzheimer Agents” (Archiv Der Pharmazie, 2025).

Assays:
[1] = target: T1, AChE from Electrophorus electricus (electric eel) (Electrophorus electricus, UniProt O42275); experiment: biochemical; conditions: for IC50: AChI substrate, DTNB, 412 nm, Tris/HCl pH 8.0; for Ki: read-out: K i (nM) AChE
T1 construct: purchased Sigma Aldrich C3389
T1 sequence (O42275 24-633): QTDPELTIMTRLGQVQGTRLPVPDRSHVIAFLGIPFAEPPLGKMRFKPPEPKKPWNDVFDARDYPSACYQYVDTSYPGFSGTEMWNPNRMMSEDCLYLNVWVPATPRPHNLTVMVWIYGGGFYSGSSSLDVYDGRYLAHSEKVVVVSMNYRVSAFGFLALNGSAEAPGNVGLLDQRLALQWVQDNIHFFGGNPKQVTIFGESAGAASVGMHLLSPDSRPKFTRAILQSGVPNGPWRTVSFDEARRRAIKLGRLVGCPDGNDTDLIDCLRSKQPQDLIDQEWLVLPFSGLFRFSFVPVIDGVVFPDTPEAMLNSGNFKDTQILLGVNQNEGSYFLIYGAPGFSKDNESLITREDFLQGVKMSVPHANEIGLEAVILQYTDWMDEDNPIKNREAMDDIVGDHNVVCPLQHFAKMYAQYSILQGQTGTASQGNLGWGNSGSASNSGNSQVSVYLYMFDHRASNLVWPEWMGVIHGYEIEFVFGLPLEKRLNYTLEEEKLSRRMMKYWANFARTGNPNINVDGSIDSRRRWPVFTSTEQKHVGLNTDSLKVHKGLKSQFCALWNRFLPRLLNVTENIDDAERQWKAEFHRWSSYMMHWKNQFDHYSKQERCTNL
Protocol: Both […] (AChI) and butyrylcholine iodide (BChI) were used as substrates for the enzymatic hydrolysis reactions, with 5,5′‐dithiobis(2‐nitrobenzoic acid) (DTNB) serving as a common reagent for detecting the activities of AChE and BChE. The assay was conducted: 1 mL of 1.0 M Tris/HCl buffer (pH 8.0) was mixed with 10 μL of the sample solution in deionized water. To this mixture, 50 μL of AChE or BChE enzyme solution was added, and the reaction was incubated at room temperature for 10 min. After incubation, 50 μL of DTNB (0.5 mM) was introduced, followed by the addition of 50 μL of either AChI or BChI (10 mM), initiating the enzymatic reaction. […] This color change is due to the reaction of DTNB with thiocholine released during the hydrolysis of AChI or BChI. For every inhibitor that was utilized, IC50 and K i values were determined. In this study, C7512‐ BChE from equine serum and C3389‐ AChE from Electrophorus electricus (electric eel) were purchased from Sigma Aldrich.

[2] = target: T2, hMAO‐B (Homo sapiens, UniProt P27338); experiment: In vitro fluorometric MAO-B inhibition assay (tyramine substrate, horseradish peroxidase coupling); type: biochemical
T2 construct: purchased Sigma Aldrich M7441
T2 sequence (P27338 1-520): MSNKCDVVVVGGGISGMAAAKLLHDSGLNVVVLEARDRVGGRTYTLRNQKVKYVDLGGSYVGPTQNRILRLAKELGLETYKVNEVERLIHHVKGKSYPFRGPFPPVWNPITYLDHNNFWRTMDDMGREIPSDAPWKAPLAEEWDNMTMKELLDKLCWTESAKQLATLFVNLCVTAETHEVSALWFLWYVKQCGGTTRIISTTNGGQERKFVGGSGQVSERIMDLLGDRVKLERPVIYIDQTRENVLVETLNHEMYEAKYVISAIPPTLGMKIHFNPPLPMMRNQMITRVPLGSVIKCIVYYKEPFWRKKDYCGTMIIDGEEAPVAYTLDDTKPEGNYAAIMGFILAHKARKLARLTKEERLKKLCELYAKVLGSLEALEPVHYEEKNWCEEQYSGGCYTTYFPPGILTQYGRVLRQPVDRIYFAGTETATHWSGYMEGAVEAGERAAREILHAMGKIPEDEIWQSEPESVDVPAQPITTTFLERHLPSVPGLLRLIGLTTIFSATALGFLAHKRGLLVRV
Protocol: (§1) The in vitro fluorometric technique was used to assess each newly generated substance's inhibitory activity against hMAO‐A and hMAO‐B. In a horseradish peroxidase coupling reaction, the oxired reagent (10‐acetyl‐3,7‐dihydroxyphenoxazine) detects H2O2, a result of the oxidative deamination of tyramine, which is utilized as an MAO substrate. The test was carried out in two steps. First, each compound's concentrations of 10^–3 and 10^–4 M were investigated. […] These parameters of this study were made as in previous studies. We purchased these two enzymes from Sigma Aldrich (M7316‐Monoamine Oxidase A human and M7441‐ […]).

[3] = target: T3, BChE from equine serum (Equus caballus, UniProt P81908); experiment: biochemical; conditions: for IC50: BChI substrate, DTNB, 412 nm, Tris/HCl pH 8.0; for Ki: read-out: K i (nM) BChE
T3 construct: C7512‐ BChE from equine serum; purchased Sigma Aldrich C7512; host or cells: equine serum
T3 sequence (P81908 whole entry): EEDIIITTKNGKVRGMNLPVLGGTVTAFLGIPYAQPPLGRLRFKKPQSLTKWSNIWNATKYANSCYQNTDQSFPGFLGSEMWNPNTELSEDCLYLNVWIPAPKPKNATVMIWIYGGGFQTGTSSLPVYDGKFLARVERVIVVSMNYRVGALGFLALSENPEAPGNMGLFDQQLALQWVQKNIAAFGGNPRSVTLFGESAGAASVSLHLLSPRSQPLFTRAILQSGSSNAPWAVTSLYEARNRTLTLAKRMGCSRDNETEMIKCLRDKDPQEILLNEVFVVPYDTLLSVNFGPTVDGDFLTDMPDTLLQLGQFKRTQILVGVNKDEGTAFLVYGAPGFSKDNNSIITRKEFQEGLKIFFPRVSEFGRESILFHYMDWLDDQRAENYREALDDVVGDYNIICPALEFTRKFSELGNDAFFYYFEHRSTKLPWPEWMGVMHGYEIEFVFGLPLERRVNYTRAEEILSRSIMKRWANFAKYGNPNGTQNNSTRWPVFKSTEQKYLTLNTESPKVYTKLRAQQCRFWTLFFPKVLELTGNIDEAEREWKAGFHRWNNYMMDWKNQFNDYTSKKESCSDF
Protocol: Both […] (AChI) and butyrylcholine iodide (BChI) were used as substrates for the enzymatic hydrolysis reactions, with 5,5′‐dithiobis(2‐nitrobenzoic acid) (DTNB) serving as a common reagent for detecting the activities of AChE and BChE. The assay was conducted: 1 mL of 1.0 M Tris/HCl buffer (pH 8.0) was mixed with 10 μL of the sample solution in deionized water. To this mixture, 50 μL of AChE or BChE enzyme solution was added, and the reaction was incubated at room temperature for 10 min. After incubation, 50 μL of DTNB (0.5 mM) was introduced, followed by the addition of 50 μL of either AChI or BChI (10 mM), initiating the enzymatic reaction. The hydrolysis of the substrates was monitored spectrophotometrically by measuring the absorbance at 412 nm, corresponding to the formation of the yellow‐colored 5‐thio‐2‐nitrobenzoate anion. This color change is due to the reaction of DTNB with thiocholine released during the hydrolysis of AChI or BChI. For every inhibitor that was utilized, IC50 and K i values were determined. In this study, C7512‐ BChE from equine serum and C3389‐ AChE from Electrophorus electricus (electric eel) were purchased from Sigma Aldrich.

[4] = target: T4, hMAO‐A (Homo sapiens, UniProt P21397); experiment: In vitro fluorometric MAO-A inhibition assay (tyramine substrate, horseradish peroxidase coupling); type: biochemical
T4 construct: purchased Sigma Aldrich M7316
T4 sequence (P21397 1-527): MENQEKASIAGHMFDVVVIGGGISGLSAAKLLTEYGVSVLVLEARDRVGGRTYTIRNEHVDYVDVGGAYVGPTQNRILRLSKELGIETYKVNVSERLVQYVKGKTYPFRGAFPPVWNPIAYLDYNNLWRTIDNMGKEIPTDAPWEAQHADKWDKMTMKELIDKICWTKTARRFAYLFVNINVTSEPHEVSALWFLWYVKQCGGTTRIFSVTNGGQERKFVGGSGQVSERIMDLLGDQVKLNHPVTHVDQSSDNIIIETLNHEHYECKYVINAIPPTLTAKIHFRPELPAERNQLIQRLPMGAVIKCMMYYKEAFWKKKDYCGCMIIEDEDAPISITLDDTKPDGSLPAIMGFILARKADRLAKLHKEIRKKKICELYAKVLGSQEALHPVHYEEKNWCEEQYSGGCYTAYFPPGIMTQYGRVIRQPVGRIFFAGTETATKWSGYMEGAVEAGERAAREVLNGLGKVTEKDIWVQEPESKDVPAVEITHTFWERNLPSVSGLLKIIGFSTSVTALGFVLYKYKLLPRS
Protocol: as §1

Structure (SMILES) | IC50 [1] | Ki [1] | IC50 [2] | IC50 [3] | Ki [3] | IC50 [4]
CCN(CC)c1ccc(/C=N/NC(=S)NCC(C)C)c(OS(=O)(=O)c2ccc3ccccc3c2)c1 [Compound 5f, (E)‐5‐(Diethylamino)‐2‐{[2‐(isobutylcarbamothioyl)hydrazono]methyl}phenyl naphthalene‐2‐sulfonate] | 49.5 ± 5.21 nM | 38.8 ± 6.18 nM | 388 ± 5.37 nM | 254 ± 6.31 nM | 240 ± 18.6 nM | 134 ± 8.04 nM
CCN(CC)c1ccc(/C=N/NC(=S)NC2CCCCC2)c(OS(=O)(=O)c2ccc3ccccc3c2)c1 [Compound 5p, (E)‐2‐{[2‐(Cyclohexylcarbamothioyl)hydrazono]methyl}‐5‐(diethylamino)phenyl naphthalene‐2‐sulfonate] | 54.5 ± 4.57 nM | 47.1 ± 6.35 nM | 327 ± 9.13 nM | 254 ± 8.08 nM | 226 ± 12.6 nM | 145 ± 3.57 nM
CCN(CC)c1ccc(/C=N/NC(=S)Nc2ccc(OC)cc2)c(OS(=O)(=O)c2ccc3ccccc3c2)c1 [Compound 5d, (E)‐5‐(Diethylamino)‐2‐({2‐[(4‐methoxyphenyl)carbamothioyl]hydrazono}methyl)phenyl naphthalene‐2‐sulfonate] | 39.4 ± 2.87 nM | 32.2 ± 5.93 nM | 406 ± 8.24 nM | 253 ± 10.5 nM | 235 ± 15 nM | 171 ± 10.4 nM
CCN(CC)c1ccc(/C=N/NC(=S)Nc2ccc(Cl)cc2)c(OS(=O)(=O)c2ccc3ccccc3c2)c1 [Compound 5i, (E)‐2‐({2‐[(4‐Chlorophenyl)carbamothioyl]hydrazono}methyl)‐5‐(diethylamino)phenyl naphthalene‐2‐sulfonate] | 24.8 ± 2.41 nM | 21 ± 4.12 nM | 285 ± 4.02 nM | 200 ± 9.41 nM | 190 ± 13.6 nM | 121 ± 3.15 nM
CCN(CC)c1ccc(/C=N/NC(=S)Nc2c(C)cccc2C)c(OS(=O)(=O)c2ccc3ccccc3c2)c1 [Compound 5j, (E)‐5‐(Diethylamino)‐2‐({2‐[(2,6‐dimethylphenyl)carbamothioyl]hydrazono}methyl)phenyl naphthalene‐2‐sulfonate] | 40.6 ± 2.77 nM | 36.5 ± 5.23 nM | 395 ± 8.35 nM | 265 ± 7.9 nM | 228 ± 12.4 nM | 137 ± 6.21 nM
CCN(CC)c1ccc(C=NNC(=S)NCCCSC)c(OS(=O)(=O)c2ccc3ccccc3c2)c1 [Compound 5g] | 80.4 ± 7.62 nM | 72.4 ± 10.1 nM | 399 ± 7.93 nM | 287 ± 8.57 nM | 258 ± 16.1 nM | 188 ± 5.36 nM
CCN(CC)c1ccc(/C=N/NC(N)=S)c(OS(=O)(=O)c2ccc3ccccc3c2)c1 [Compound 5n, (E)‐2‐[(2‐Carbamothioylhydrazono)methyl]‐5‐(diethylamino)phenyl naphthalene‐2‐sulfonate] | 47.7 ± 5.67 nM | 42.4 ± 4.1 nM | 396 ± 8.09 nM | 308 ± 9.98 nM | 270 ± 13.5 nM | 137 ± 6.55 nM
CCN(CC)c1ccc(/C=N/NC(=S)Nc2ccccc2C(F)(F)F)c(OS(=O)(=O)c2ccc3ccccc3c2)c1 [Compound 5h, (E)‐5‐(Diethylamino)‐2‐[(2‐{[2‐(trifluoromethyl)phenyl]carbamothioyl}hydrazineylidene)methyl]phenyl naphthalene‐2‐sulfonate] | 16.8 ± 1.35 nM | 14.6 ± 3.36 nM | 249 ± 9.1 nM | 145 ± 8.96 nM | 136 ± 9.17 nM | 100 ± 4.57 nM
CCN(CC)c1ccc(/C=N/NC(=S)Nc2c(Cl)cccc2Cl)c(OS(=O)(=O)c2ccc3ccccc3c2)c1 [Compound 5u, (E)‐2‐({2‐[(2,6‐Dichlorophenyl)carbamothioyl]hydrazono}methyl)‐5‐(diethylamino)phenyl naphthalene‐2‐sulfonate] | 12.9 ± 1.02 nM | 9.82 ± 1.76 nM | 209 ± 5.84 nM | 148 ± 7.35 nM | 112 ± 7.61 nM | 96.2 ± 5.77 nM
CCN(CC)c1ccc(/C=N/NC(=S)NCCc2ccccc2)c(OS(=O)(=O)c2ccc3ccccc3c2)c1 [Compound 5t, (E)‐5‐(Diethylamino)‐2‐{[2‐(phenethylcarbamothioyl)hydrazono]methyl}phenyl naphthalene‐2‐sulfonate] | 56.2 ± 4.58 nM | 48.3 ± 7.32 nM | 289 ± 9.11 nM | 271 ± 6.9 nM | 227 ± 16.1 nM | 139 ± 6.02 nM
CCN(CC)c1ccc(/C=N/NC(=S)NCc2ccccc2)c(OS(=O)(=O)c2ccc3ccccc3c2)c1 [Compound 5s, (E)‐2‐{[2‐(Benzylcarbamothioyl)hydrazono]methyl}‐5‐(diethylamino)phenyl naphthalene‐2‐sulfonate] | 71.4 ± 8.92 nM | 63.9 ± 7.54 nM | 369 ± 12 nM | 220 ± 8.53 nM | 195 ± 13.5 nM | 131 ± 5.34 nM
CCN(CC)c1ccc(/C=N/NC(=S)Nc2ccccc2C)c(OS(=O)(=O)c2ccc3ccccc3c2)c1 [Compound 5r, (E)‐5‐(Diethylamino)‐2‐{[2‐(o‐tolylcarbamothioyl)hydrazono]methyl}phenyl naphthalene‐2‐sulfonate] | 27.4 ± 2.42 nM | 21.2 ± 1.05 nM | 495 ± 8.36 nM | 294 ± 7.14 nM | 249 ± 15.3 nM | 143 ± 6.78 nM
CCN(CC)c1ccc(/C=N/NC(=S)Nc2ccc(F)cc2)c(OS(=O)(=O)c2ccc3ccccc3c2)c1 [Compound 5l, (E)‐5‐(Diethylamino)‐2‐({2‐[(4‐fluorophenyl)carbamothioyl]hydrazono}methyl)phenyl naphthalene‐2‐sulfonate] | 29.5 ± 2.68 nM | 27.4 ± 3.45 nM | 277 ± 6.33 nM | 200 ± 6.88 nM | 182 ± 9.05 nM | 112 ± 2.78 nM
CCN(CC)c1ccc(/C=N/NC(=S)Nc2cccc([N+](=O)[O-])c2)c(OS(=O)(=O)c2ccc3ccccc3c2)c1 [Compound 5o, (E)‐5‐(Diethylamino)‐2‐({2‐[(3‐nitrophenyl)carbamothioyl]hydrazono}methyl)phenyl naphthalene‐2‐sulfonate] | 18.9 ± 1.33 nM | 14.2 ± 2.32 nM | 267 ± 6.35 nM | 192 ± 6.36 nM | 160 ± 9.01 nM | 123 ± 7.01 nM
CCN(CC)c1ccc(/C=N/NC(=S)Nc2ccc(Br)cc2)c(OS(=O)(=O)c2ccc3ccccc3c2)c1 [Compound 5b, (E)‐2‐({2‐[(4‐Bromophenyl)carbamothioyl]hydrazono}methyl)‐5‐(diethylamino)phenyl naphthalene‐2‐sulfonate] | 33.8 ± 3.41 nM | 26.6 ± 3.34 nM | 410 ± 7.47 nM | 202 ± 5.66 nM | 191 ± 15.7 nM | 132 ± 7.01 nM
